Our source for the EC50 values is patent US20140080813A1, “TRICYCLIC QUINOLINE AND QUINOXALINE DERIVATIVES” (ABBVIE DEUTSCHLAND GMBH & CO. KG, priority 2012, published 2014).

This assay concerns the target T1, 5-HT2C receptor (Homo sapiens, UniProt P28335).
T1 construct: host or cells: U2OS
Briefly: Functional activity: beta-arrestin2 recruitment to the 5-HT2C receptor in U2OS_HTR2C-β-Arrestin cells (DiscoverX). The class given is cell-based. The conditions noted are these: 1.5 h incubation, chemiluminescent β-galactosidase complementation readout, read-out: Potency (EC50) in functional assay. On the procedure:
The functional activity of compounds of formula I was assayed by incubation with U2OS_HTR2C—β-Arrestin cells (DiscoverX, 93-0289C3) to induce beta-arrestin2 recruitment to the 5-HT2C receptor. The agonist-induced recruitment and proximity of the receptor and beta-arrestin2 leads to complementation and formation of active β-galactosidase. The enzyme complementation results in enzyme activity, which is measured following the termination of the agonist incubation using DiscoveRx's detection reagent, which contains a chemiluminescent substrate which produces a high intensity signal. Cells were plated and a medium-change to a 1% serum containing medium was performed 24 h later. The next day, test compounds were added and incubated for 1.5 h before addition of detection reagent.
The response produced was measured and compared with the response produced by 10 [mu]M 5-HT or the maximal effect induced by 5-HT (defined as 100%) to which it was expressed as a percentage response (relative efficacy). Dose response curves were constructed using Graphpad Prism (Graph Software Inc.) or using in house adapted software using a 4 parameter dose response model with variable slope (fit=(Bottom+(Top−Bottom)/(1+10̂((LogEC50−x)*HillSlope))res=(y-fit)). Results are compiled in the table below.

The structures appear in SMILES notation. Structures can show the parent of a compound that is named as a salt. Bounds are passed on as bounds.

T1 sequence (P28335 33-458): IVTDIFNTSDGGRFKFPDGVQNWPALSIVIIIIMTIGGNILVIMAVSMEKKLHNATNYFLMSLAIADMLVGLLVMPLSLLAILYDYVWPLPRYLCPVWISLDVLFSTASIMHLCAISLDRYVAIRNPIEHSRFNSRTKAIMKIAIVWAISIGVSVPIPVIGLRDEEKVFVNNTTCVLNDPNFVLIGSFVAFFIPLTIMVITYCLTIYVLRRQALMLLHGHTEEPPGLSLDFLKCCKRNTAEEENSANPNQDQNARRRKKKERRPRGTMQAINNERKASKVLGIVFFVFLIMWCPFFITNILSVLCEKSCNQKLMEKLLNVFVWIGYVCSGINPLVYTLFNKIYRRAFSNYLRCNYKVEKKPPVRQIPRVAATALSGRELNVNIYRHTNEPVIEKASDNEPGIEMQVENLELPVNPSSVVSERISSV
T1 sequence (P32121 whole entry partner): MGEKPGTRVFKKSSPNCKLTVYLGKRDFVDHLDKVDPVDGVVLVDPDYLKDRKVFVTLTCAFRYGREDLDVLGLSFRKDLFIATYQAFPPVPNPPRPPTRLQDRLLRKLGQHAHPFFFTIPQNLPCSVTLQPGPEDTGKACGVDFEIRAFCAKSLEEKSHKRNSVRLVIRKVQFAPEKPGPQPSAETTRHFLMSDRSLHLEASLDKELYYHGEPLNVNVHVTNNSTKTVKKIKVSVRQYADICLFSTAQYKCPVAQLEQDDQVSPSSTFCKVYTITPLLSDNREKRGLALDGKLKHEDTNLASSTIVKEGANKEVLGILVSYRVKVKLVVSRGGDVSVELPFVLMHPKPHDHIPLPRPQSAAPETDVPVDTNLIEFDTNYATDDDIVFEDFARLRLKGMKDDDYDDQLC

For the molecule `CC1(C(F)(F)F)CCN2CCNCc3cccc1c32` (single isomer, unassigned) [Example 8, 8-Methyl-8-(trifluoromethyl)-2,3,4,6,7,8-hexahydro-1H-[1,4]diazepino[6,7,1-ij]quinoline], the EC50 (usually the midpoint of the concentration-response curve) was 20 to 200 nM. For `CC1(C(F)(F)F)CCN2CCNCc3cccc1c32` (single isomer, unassigned) [Example 9, 8-Methyl-8-(trifluoromethyl)-2,3,4,6,7,8-hexahydro-1H-[1,4]diazepino[6,7,1-ij]quinoline], the EC50 was less than 20 nM.

Take `CC1CN2CCNCc3cccc(c32)C1(C)C` (single isomer, unassigned) [Example 27]: the EC50 lay within 200 to 1000 nM. `CC1CN2CCNCc3cccc(c32)C1(C)C` (single isomer, unassigned) [Example 28]: the EC50 lay in the range of 20 to 200 nM. Consider `CC1(C)CCN2CCNCc3cccc1c32` [Example 1, 8,8-Dimethyl-2,3,4,6,7,8-hexahydro-1H-[1,4]diazepino[6,7,1-ij]quinoline], for which the EC50 fell in the range of 20 to 200 nM. Regarding `c1cc2c3c(c1)C1(CCCC1)CCN3CCNC2` [Example 6, 1,2,3,4,6,7-Hexahydrospiro[[1,4]diazepino[6,7,1-ij]quinoline-8,1′-cyclopentane]], the concentration giving a half-maximal response (EC50) was 20 to 200 nM.

As for `c1cc2c3c(c1)N1CCC[C@@H]1CN3CCNC2` [Example 16, (R)-5,6,7,9,9a,10,11,12-Octahydro-4H-[1,4]diazepino[1,7,6-de]pyrrolo[1,2-a]quinoxaline bis(2,2,2-trifluoroacetate)], the EC50 was in the range of 200 to 1000 nM. As for `CC1(C)CCN2CCNCc3cc(Cl)cc1c32` [Example 19, 10-Chloro-8,8-dimethyl-2,3,4,6,7,8-hexahydro-1H-[1,4]diazepino[6,7,1-ij]quinoline bis(2,2,2-trifluoroacetate)], the figure is 20 to 200 nM.

On to `CC1(C)CCN2CCNCc3ccc(F)c1c32` [Example 22, 9-Fluoro-8,8-dimethyl-2,3,4,6,7,8-hexahydro-1H-[1,4]diazepino[6,7,1-ij]quinoline], for which the concentration for a half-maximal effect (EC50) was 20 to 200 nM.

As to `c1cc2c3c(c1)C1(CCC1)CCN3CCNC2` [Example 25, 1′,2′,3′,4′,6′,7′-Hexahydrospiro[cyclobutane-1,8′-[1,4]diazepino[6,7,1-ij]quinoline], hydrochloride], the EC50 lay within 20 to 200 nM.

Take `Fc1ccc2c3c1C1(CCC1)CCN3CCNC2` [Example 26, 9′-Fluoro-1′,2′,3′,4′,6′,7′-hexahydrospiro[cyclobutane-1,8′-[1,4]diazepino[6,7,1-ij]quinoline], hydrochloride]: the concentration giving a half-maximal response (EC50) was less than 20 nM.
